Measurements published in publication PMC5404542, “In Vitro and In Vivo Antifungal Profile of a Novel and Long-Acting Inhaled Azole, PC945, on Aspergillus fumigatus Infection” (Antimicrobial Agents and Chemotherapy, 2017).
Values after ≈ are worked out from the molar mass of the structure shown. Values joined by “and” are separate entries in the source; they are usually repeats but may differ in a detail not shown here. Equal values may be shown once. Read-outs that look alike come from different tables or passages of the source.

Legend:
[1] = Plasma protein binding; assay type: in vitro ADME
[2] = test system: A. fumigatus (NCPF2010); assay: A. fumigatus cell-based ergosterol assay; parameters: species or system Aspergillus fumigatus; details: for IC50: Aspergillus fumigatus, NCPF2010, 24 h, normalized by crystal violet, read-out: IC50, inhibition of ergosterol production
Experimental: After incubation for 24 h at 35°C, medium was removed from all wells and replaced with reaction buffer (Amplex red cholesterol assay kit; Thermo Fisher) and Amplex red solution. Plates were incubated for 30 min at 37°C, protected from light, after which fluorescence was quantified using a spectrophotometer. Medium was removed from all wells and replaced with crystal violet solution (1% [vol/vol]), and plates were incubated at room temperature on a shaker for 30 min. Plates were washed three times with phosphate-buffered saline (PBS), and sodium dodecyl sulfate solution (0.1% [vol/vol]) was added across the plate to lyse the cells. After incubation at room temperature for 1 h, the absorbance was measured by determining the OD590 by use of a spectrophotometer.

[3] = test system: Candida albicans (20240.047, ATCC 10231); assay: MIC, CLSI; assay type: cell-based; details: ATCC10231, 2 strains, CLSI, mean isolate MIC, read-out: MIC (the MIC given is the MIC50)
[4] = test system: A. fumigatus hyphae (NCPF2010)
Experimental: (§2) The persistence of action of test agents was calculated for A. fumigatus hyphae (NCPF2010). […] The plates were incubated for exactly 20 min at 35°C and 5% CO2. After the incubation time had elapsed, all wells on the designated washout plate were aspirated, and growth medium (100 μl/well) was added across the plate. […] Resazurin (0.04%; diluted in growth medium) was added to all wells of both nonwashout and washout plates (5 μl/well) to give a final concentration of 0.002% resazurin. The plates were incubated at 35°C and 5% CO2 for 16 h. […] The percent inhibition for each well was calculated, and the IC50 was calculated from the concentration-response curve generated for each test compound by use of a four-parameter logistic equation (Dotmatics, Bishops Stortford, United Kingdom).

[5] = test system: Aureobasidium pullulans (ATCC 9348); assay: MIC, CLSI; assay type: cell-based; details: ATCC9348, 1 strain
[6] = Systemic exposure after topical/intranasal treatment; assay type: in vivo; details: data not shown
[7] = test system: Trichophyton rubrum (ATCC 10218); assay: MIC, CLSI; assay type: cell-based; details: ATCC10218, 1 strain
[8] = test system: A. fumigatus (ATCC 13073 [strain NIH 5233]); assay: In vivo antifungal activity, intranasal treatment of temporarily neutropenic immunocompromised mice; details: for incidence of rolling behavior: 14 μg/mouse intranasally once daily
Experimental: The mice were reared on a standard diet and tap water ad libitum. […] Conidia were aseptically dislodged from the agar plates and suspended in sterile distilled water with 0.05% Tween 80 and 0.1% agar. […] On day 0, 30 μl of the conidial suspension was administered intranasally.
Test agents suspended in physiological saline were administered daily intranasally (35 μl) on days 1 to 6, and the survival of animals was recorded for 7 days. […] Deaths and the body weights of surviving animals were monitored daily. A body weight loss of >20% compared to an animal's weight on day 1 and mouse death were both defined as “dropout” events. Animals that lost >20% of their initial body weight were sacrificed. […] Bronchoalveolar lavage fluid (BALF) was collected on day 7 postinfection or on the day that the mouse dropped out of the study. The Aspergillus GM concentration in BALF was determined by use of Platelia GM-EIA kits (Bio-Rad Laboratories). The value was provided as the “cutoff index” (COI), which was calculated by the following formula: COI = OD in sample/OD in cutoff control (provided by the kit).

[9] = molecular target: AfCYP51A (Aspergillus fumigatus, UniProt Q4WNT5); assay: A. fumigatus CYP51 binding assay (ligand titration, type II difference spectra); parameters: made in house
AfCYP51A, sequence (Q4WNT5 whole entry): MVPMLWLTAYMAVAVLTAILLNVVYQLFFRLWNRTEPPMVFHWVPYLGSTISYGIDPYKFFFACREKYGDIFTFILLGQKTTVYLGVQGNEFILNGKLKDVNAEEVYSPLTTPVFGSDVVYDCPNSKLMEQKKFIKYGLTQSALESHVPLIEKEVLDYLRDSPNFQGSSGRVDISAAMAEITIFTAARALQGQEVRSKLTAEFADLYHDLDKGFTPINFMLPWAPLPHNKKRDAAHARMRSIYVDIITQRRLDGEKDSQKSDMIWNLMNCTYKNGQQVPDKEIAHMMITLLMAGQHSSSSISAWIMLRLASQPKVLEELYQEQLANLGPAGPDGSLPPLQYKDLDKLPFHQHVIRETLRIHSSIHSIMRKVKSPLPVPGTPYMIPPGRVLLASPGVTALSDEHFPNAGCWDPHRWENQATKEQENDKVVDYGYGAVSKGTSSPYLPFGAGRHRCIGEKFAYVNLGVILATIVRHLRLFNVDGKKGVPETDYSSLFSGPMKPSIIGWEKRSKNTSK
Experimental: (§1) A. fumigatus CYP51 binding properties were determined as described by Warrilow et al. ([35]). Test agents were titrated against 4 μM recombinant A. fumigatus CYP51A or CYP51B protein, and binding saturation curves were constructed from the change in the absorbance between the spectral peak and the trough. A rearrangement of the Morrison equation was used to determine the dissociation constant (Kd) values when ligand binding was tight ([36]).

[10] = test system: Gibberella zeae (Fusarium graminearum) (ATCC 16106); assay: microbe, parasite or virus in culture; assay type: cell-based; details: ATCC16106
[11] = test system: BEAS2B cells infected with A. fumigatus; assay: Persistence of action on bronchial epithelial cells (galactomannan in supernatant); assay type: cell-based, Aspergillus fumigatus; details: for IC50: Aspergillus fumigatus, BEAS-2B
Experimental: The persistence of action of test agents was evaluated on immortalized bronchial epithelial cells (BEAS2B cells). […] Test and reference articles or undiluted DMSO (as vehicle) (0.5 μl/well) was added to the appropriate wells of the washout plate to give a final concentration of 0.5% DMSO. The plate was incubated for exactly 1 h at 37°C and 5% CO2. After the incubation time had elapsed, all wells on the washout plate were aspirated, and growth medium (100 μl/well) was added across the plate. After 24 h of incubation at 37°C, test and reference articles or undiluted DMSO (as vehicle) (0.5 μl/well) was added to the appropriate wells of the nonwashout plate to give a final concentration of 0.5% DMSO. The plate was incubated for exactly 1 h at 37°C and 5% CO2, after which A. fumigatus conidia were added across both plates to a final concentration of 1 × 10^3/well.

[12] = test system: AR Candida albicans (20183.073, 20186.025); assay: MIC, CLSI; assay type: cell-based; details: read-out: MIC (the MIC given is the MIC50)
[13] = Precipitation in EUCAST medium; assay type: physicochemical
[14] = test system: Mucor circinelloides (ATCC 8542); assay: MIC, CLSI; assay type: cell-based; details: ATCC8542, 1 strain
[15] = test system: A. fumigatus ATCC 204305; assay: MIC with and without BSA supplementation, quality control strain; details: Aspergillus fumigatus
Experimental: Conidia were added across the plate to a final concentration of 1 × 10^5 ml^−1. […] Determination of antifungal activity against 50 A. fumigatus clinical isolates from St. Louis Hospital (Paris, France) was performed with 96-well plates, using the modified EUCAST method in the presence of 0.5% BSA as described above. Antifungal susceptibility testing of 46 A. fumigatus isolates (obtained from the NW England Mycology Reference Centre) was performed by Evotec UK Ltd. (Manchester, United Kingdom) according to EUCAST guidelines.

[16] = test system: Candida krusei (ATCC 6258); assay: MIC, CLSI; assay type: cell-based; details: Pichia kudriavzevii, ATCC6258; 1 strain, CLSI; read-out: MIC
[17] = test system: Chaetomium globosum (ATCC 44699); assay: MIC, CLSI; assay type: cell-based; details: ATCC44699, 1 strain
[18] = test system: Penicillium citrinum (ATCC 9849); assay: MIC, CLSI; assay type: cell-based; details: ATCC9849, 1 strain
[19] = test system: Cladosporium argillaceum (ATCC 38013); assay: MIC, CLSI; assay type: cell-based; details: Rhizocladosporium argillaceum, ATCC38013, 1 strain
[20] = test system: Rhizopus oryzae (ATCC 11145); assay: MIC, CLSI; assay type: cell-based
[21] = molecular target: T1, AfCYP51B (Aspergillus fumigatus, UniProt E9QY26); assay: A. fumigatus CYP51 binding assay (ligand titration, type II difference spectra); details: for Kd: 4 μM purified AfCYP51B
T1 construct: made in house
T1 sequence (E9QY26 whole entry): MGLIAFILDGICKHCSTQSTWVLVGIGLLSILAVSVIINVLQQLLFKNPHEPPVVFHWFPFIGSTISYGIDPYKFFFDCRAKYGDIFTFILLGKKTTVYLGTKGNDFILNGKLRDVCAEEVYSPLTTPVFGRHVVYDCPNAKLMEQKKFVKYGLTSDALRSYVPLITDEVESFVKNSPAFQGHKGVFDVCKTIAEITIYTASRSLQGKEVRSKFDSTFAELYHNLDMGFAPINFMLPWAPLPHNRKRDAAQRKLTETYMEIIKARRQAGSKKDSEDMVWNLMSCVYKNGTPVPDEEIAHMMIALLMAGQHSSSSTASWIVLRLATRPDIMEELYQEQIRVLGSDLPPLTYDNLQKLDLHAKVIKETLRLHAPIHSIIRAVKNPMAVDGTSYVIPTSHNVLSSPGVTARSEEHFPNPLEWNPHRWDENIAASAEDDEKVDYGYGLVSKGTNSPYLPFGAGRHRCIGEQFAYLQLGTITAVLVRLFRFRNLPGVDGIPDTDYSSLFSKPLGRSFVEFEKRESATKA
Experimental: as §1

[22] = test system: Aspergillus terreus (AT49, AT7130); assay: MIC, EUCAST; assay type: cell-based; details: 2 strains, EUCAST, mean isolate MIC, read-out: MIC
[23] = test system: Aspergillus flavus (ATCC 204304); assay: MIC, CLSI; assay type: cell-based; details: ATCC204304, 1 strain, CLSI, read-out: MIC
[24] = test system: A. fumigatus hyphae (NCPF2010); assay: Persistence of action on A. fumigatus hyphae (resazurin-based microtiter assay); details: for IC50: Aspergillus fumigatus, NCPF2010, 16 h, read-out: Hyphae IC50, No washout; for Hyphae Fold change: washout versus no washout
Experimental: as §2

[25] = test system: Rhizomucor pusillus (ATCC 16458); assay: MIC, CLSI; assay type: cell-based; details: ATCC16458, 1 strain
[26] = 0.56 μg/mouse intranasally once daily days 1 to 6
[27] = 2.8 μg/mouse intranasally once daily days 1 to 6
[28] = 14 μg/mouse intranasally once daily days 1 to 6
[29] = 1 h contact before infection, GM readout after 24 h, read-out: BEAS2B cells IC50, No washout
[30] = 1 h contact, 24-h washout prior to infection, GM readout, read-out: BEAS2B cells IC50, Washout
[31] = Rhizopus arrhizus, ATCC11145, 1 strain, read-out: MIC
[32] = 70 μg/mouse intranasally once daily days 1 to 6

Structure (SMILES): Cc1cc(N2CCN(c3ccc(C(=O)Nc4ccc(F)cc4)cc3)CC2)ccc1OC[C@@H]1CO[C@@](Cn2cncn2)(c2ccc(F)cc2F)C1 [PC945, 4-[4-(4-{[(3R,5R)-5-(2,4-difluorophenyl)-5-(1H-1,2,4-triazol-1-ylmethyl)oxolan-3-yl]methoxy}-3-methylphenyl)piperazin-1-yl]-N-(4-fluorophenyl)benzamide]
- plasma protein binding [1]: high levels of plasma protein binding
- fold more potent than posaconazole, ergosterol production [2]: 2.6 fold
- fold more potent than voriconazole, ergosterol production [2]: 14 fold
- IC50 [2]: 0.0047 µg/mL and 6.9 nM
- MIC50 [3]: 81 ng/mL (≈ 0.119 µM)
- IC50 [4]: 0.086 ng/mL (≈ 0.000126 µM)
- MIC [5]: > 8000 ng/mL
- systemic exposure [6]: very low systemic exposure
- MIC [7]: 31 ng/mL (≈ 0.0454 µM)
- Median days of survival [8, 26]: 6 days
- No. of survivors on day 7/total no. of mice [8, 26]: 4/8
- survivors on day 7 (%) [8, 26]: 50%
- Median days of survival [8, 27]: 6.5 days
- No. of survivors on day 7/total no. of mice [8, 27]: 5/8
- survivors on day 7 (%) [8, 27]: 63%
- incidence of rolling behavior [8]: substantially inhibited
- Median days of survival [8, 28]: Undefined
- No. of survivors on day 7/total no. of mice [8, 28]: 10/16
- survivors on day 7 (%) [8, 28]: 63%
- Kd [9]: 500 nM
- difference spectra on titration against purified CYP51A [9]: type II difference spectra
- MIC [10]: > 8000 ng/mL
- IC50 [11, 29]: 3.7 ng/mL (≈ 0.00542 µM)
- IC50 [11, 30]: 43 ng/mL (≈ 0.063 µM)
- MIC50 [12]: 8250 ng/mL (≈ 12.1 µM)
- concentration at which compound precipitated in EUCAST medium [13]: > 4000 ng/mL
- MIC [14]: > 8000 ng/mL
- MIC ([15]; ATCC204305, with BSA): 62.5 ng/mL (≈ 0.0915 µM)
- MIC ([15]; ATCC204305, without BSA): 250 ng/mL (≈ 0.366 µM)
- MIC [16]: 125 ng/mL (≈ 0.183 µM)
- MIC [17]: > 8000 ng/mL
- MIC [18]: > 8000 ng/mL
- MIC [19]: > 8000 ng/mL
- MIC ([20]; 1 strain): 2000 ng/mL (≈ 2.93 µM)
- MIC [20, 31]: 2000 ng/mL (≈ 2.93 µM)
- difference spectra on titration against purified CYP51B [21]: type II difference spectra
- Kd ([21]; Kd2, AfCYP51B, modified two-site allosteric model): 320 nM
- MIC [22]: 78 ng/mL (≈ 0.114 µM)
- MIC [23]: > 8000 ng/mL
- IC50 [24]: 0.1 ng/mL (≈ 0.000146 µM)
- fold more potent than posaconazole at inhibiting hyphal growth ([24]; no washout): 4.5 fold
- fold more potent than voriconazole at inhibiting hyphal growth ([24]; no washout): 110 fold
- MIC [25]: > 8000 ng/mL

Structure (SMILES): CC[C@@H]([C@H](C)O)n1ncn(-c2ccc(N3CCN(c4ccc(OC[C@@H]5CO[C@@](Cn6cncn6)(c6ccc(F)cc6F)C5)cc4)CC3)cc2)c1=O [Posaconazole, posaconazole]
- IC50 [2]: 0.012 µg/mL and 17 nM
- MIC50 [3]: 81 ng/mL (≈ 0.116 µM)
- IC50 [4]: 2.2 ng/mL (≈ 0.00314 µM)
- MIC [5]: 1000 ng/mL (≈ 1.43 µM)
- MIC [7]: 31 ng/mL (≈ 0.0442 µM)
- Median days of survival [8, 27]: 5 days
- No. of survivors on day 7/total no. of mice [8, 27]: 1/8
- survivors on day 7 (%) [8, 27]: 13%
- incidence of rolling behavior [8]: not
- Median days of survival [8, 28]: 6 days
- No. of survivors on day 7/total no. of mice [8, 28]: 7/16
- survivors on day 7 (%) [8, 28]: 44%
- Median days of survival [8, 32]: Undefined
- No. of survivors on day 7/total no. of mice [8, 32]: 6/8
- survivors on day 7 (%) [8, 32]: 75%
- Kd [9]: 960 nM
- MIC [10]: > 8000 ng/mL
- IC50 [11, 29]: 3.1 ng/mL (≈ 0.00442 µM)
- IC50 [11, 30]: 46 ng/mL (≈ 0.0656 µM)
- BEAS2B cells Fold change ([11]; washout versus no washout): 14.7 fold
- MIC50 [12]: 8130 ng/mL (≈ 11.6 µM)
- MIC [14]: > 8000 ng/mL
- MIC ([15]; ATCC204305, with BSA): 60 ng/mL (≈ 0.0856 µM)
- MIC ([15]; ATCC204305, without BSA): 30 ng/mL (≈ 0.0428 µM)
- MIC [17]: 250 ng/mL (≈ 0.357 µM)
- MIC [18]: 500 ng/mL (≈ 0.713 µM)
- MIC [19]: 250 ng/mL (≈ 0.357 µM)
- MIC ([20]; 1 strain): >8000 ng/mL
- MIC [20, 31]: > 8000 ng/mL
- Kd ([21]; Kd1, AfCYP51B, PC945: modified two-site allosteric model, posaconazole: single tight-binding Kd): 12 nM
- MIC [22]: 93 ng/mL (≈ 0.133 µM)
- MIC [23]: 130 ng/mL (≈ 0.186 µM)
- IC50 [24]: 0.45 ng/mL (≈ 0.000642 µM)
- Hyphae Fold change [24]: 4.90 fold
- Hyphae Fold change ([24]; listed as posaconazole): 4.9 fold
- MIC [25]: > 8000 ng/mL
